# According to patent publication US9834571B2, “Compounds for inhibiting cell proliferation in EGFR-driven cancers” (ARIAD Pharmaceuticals, Inc., priority 2012, dated 2017):
# Columns and labels:
# [1] = target: human EGFR (native sequence) (Homo sapiens, UniProt P00533); test: Kinase inhibitory activity against human EGFR (native sequence); type: biochemical; conditions: 10 pt curves, 3 μM top concentration, 10 μM ATP; read-out: IC50 for kinase inhibition, EGFR
# Method in brief: (§1)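 Ten-point dose-response curves were run in singlicate from a 3 μM top concentration, with ATP at 10 μM.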
# EGFR L858R = EGFR L858R (Homo sapiens, UniProt P00533, L858R); test: Kinase inhibitory activity against EGFR bearing the L858R mutation; type: biochemical; conditions: 10 pt curves, 3 μM top concentration, 10 μM ATP; read-out: IC50 for kinase inhibition, EGFR L858R
# Chain of EGFR L858R (P00533 25-1210 L858R): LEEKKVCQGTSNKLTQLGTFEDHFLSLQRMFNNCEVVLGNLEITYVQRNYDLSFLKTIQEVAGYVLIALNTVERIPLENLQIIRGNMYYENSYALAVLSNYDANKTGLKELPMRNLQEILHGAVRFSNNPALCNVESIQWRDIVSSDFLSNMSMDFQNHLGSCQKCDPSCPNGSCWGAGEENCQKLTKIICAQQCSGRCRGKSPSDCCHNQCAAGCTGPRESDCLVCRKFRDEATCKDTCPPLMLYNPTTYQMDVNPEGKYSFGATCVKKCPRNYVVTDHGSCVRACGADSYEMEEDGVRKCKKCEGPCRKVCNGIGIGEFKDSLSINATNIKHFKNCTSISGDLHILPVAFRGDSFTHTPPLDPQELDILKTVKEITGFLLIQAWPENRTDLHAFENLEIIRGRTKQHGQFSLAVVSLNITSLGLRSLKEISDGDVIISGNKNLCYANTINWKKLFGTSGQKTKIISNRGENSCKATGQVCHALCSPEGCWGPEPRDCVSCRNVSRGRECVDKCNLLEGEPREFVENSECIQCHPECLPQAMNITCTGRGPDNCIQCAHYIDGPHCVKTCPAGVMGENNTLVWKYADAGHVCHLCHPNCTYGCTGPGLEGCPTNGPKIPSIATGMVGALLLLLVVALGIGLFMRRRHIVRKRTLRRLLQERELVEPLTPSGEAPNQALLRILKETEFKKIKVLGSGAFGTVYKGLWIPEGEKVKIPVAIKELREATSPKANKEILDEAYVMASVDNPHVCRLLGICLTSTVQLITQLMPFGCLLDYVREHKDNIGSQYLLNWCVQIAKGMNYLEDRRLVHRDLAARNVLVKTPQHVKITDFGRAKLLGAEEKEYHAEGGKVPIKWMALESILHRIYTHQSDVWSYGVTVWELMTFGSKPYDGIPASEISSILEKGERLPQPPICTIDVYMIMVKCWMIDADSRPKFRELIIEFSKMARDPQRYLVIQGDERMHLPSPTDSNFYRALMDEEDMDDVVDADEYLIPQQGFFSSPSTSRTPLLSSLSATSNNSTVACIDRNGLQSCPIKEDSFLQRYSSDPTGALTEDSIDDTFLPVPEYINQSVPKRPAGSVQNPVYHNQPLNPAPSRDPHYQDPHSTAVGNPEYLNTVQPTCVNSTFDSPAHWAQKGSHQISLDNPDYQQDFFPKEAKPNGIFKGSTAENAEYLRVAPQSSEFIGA
# Method in brief: as §1
# EGFR L858R/T790M = EGFR L858R/T790M (Homo sapiens, UniProt P00533, L858R/T790M); test: Kinase inhibitory activity against EGFR bearing the L858R/T790M double mutation; type: biochemical; conditions: 10 pt curves, 3 μM top concentration, 10 μM ATP; read-out: IC50 for kinase inhibition, EGFR L858R T790M
# Chain of EGFR L858R/T790M (P00533 25-1210 T790M/L858R): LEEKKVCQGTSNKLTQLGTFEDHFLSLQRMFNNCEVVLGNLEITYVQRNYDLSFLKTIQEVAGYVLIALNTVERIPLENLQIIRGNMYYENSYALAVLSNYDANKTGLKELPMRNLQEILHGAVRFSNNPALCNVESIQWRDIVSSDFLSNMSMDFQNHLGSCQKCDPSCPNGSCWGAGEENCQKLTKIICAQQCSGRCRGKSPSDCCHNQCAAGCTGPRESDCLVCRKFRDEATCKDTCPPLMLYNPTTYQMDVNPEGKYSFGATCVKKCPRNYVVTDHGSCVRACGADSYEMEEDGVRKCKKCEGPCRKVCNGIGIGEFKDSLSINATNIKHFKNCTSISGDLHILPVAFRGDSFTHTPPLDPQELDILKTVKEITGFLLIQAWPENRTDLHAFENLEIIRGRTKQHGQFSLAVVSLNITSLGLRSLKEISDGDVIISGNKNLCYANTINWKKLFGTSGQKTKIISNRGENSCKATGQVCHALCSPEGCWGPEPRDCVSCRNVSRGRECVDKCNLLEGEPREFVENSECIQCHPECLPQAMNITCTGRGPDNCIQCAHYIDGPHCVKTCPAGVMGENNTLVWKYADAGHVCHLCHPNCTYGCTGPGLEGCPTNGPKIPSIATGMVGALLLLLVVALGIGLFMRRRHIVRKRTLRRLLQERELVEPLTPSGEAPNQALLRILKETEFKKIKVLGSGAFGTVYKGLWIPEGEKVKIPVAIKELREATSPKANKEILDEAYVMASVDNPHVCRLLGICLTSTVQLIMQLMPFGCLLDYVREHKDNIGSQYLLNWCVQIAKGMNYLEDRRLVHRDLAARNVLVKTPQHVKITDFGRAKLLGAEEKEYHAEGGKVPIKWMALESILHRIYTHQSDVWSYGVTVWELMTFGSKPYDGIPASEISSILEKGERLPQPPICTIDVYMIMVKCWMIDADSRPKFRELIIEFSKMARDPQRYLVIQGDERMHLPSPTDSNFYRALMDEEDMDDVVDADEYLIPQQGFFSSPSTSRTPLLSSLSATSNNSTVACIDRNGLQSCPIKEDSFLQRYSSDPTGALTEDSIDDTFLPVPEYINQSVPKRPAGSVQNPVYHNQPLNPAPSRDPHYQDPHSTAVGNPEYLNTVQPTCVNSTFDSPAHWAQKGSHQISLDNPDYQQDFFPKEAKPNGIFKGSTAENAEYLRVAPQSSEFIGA
# Method in brief: as §1
# [2] = target: T1, BaF3 cells expressing the target EGFR mutations (Homo sapiens, UniProt P00533, T790M, cells depend on it, form not given); test: Antiproliferative activity (MTT) against BaF3 cells expressing the target EGFR mutations; type: cell-based; conditions: BAF3 EGFR DEL T790M PURO POOL cells, read-out: IC50, BAF3 EGFR DEL T790M PURO POOL
# T1 construct: IC50, BAF3 EGFR DEL T790M PURO POOL; other: BAF3 EGFR DEL T790M PURO POOL cells, MTT; other: BAF3 EGFR DEL T790M PURO POOL cells; MTT
# Method in brief: (§2)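 Viability by MTT colorimetry. Cells: BaF3 transfected with mutant EGFR, plus a wildtype-EGFR BaF3 counter-screen.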
# [3] = target: T2, BaF3 cells expressing the target EGFR mutations (Homo sapiens, UniProt P00533, T790M/L858R, cells depend on it); test: as above; type: cell-based; conditions: BAF3 EGFR L858R-T790M PURO POOL cells, read-out: IC50, BAF3 EGFR L858R-T790M PURO POOL
# T2 construct: IC50, BAF3 EGFR L858R-T790M PURO POOL; other: BAF3 EGFR L858R-T790M PURO POOL cells, MTT; IC50, BAF3 EGFR L858R-T790M PURO POOL; other: BAF3 EGFR L858R-T790M PURO POOL cells; MTT
# T2 sequence (P00533 whole entry T790M/L858R): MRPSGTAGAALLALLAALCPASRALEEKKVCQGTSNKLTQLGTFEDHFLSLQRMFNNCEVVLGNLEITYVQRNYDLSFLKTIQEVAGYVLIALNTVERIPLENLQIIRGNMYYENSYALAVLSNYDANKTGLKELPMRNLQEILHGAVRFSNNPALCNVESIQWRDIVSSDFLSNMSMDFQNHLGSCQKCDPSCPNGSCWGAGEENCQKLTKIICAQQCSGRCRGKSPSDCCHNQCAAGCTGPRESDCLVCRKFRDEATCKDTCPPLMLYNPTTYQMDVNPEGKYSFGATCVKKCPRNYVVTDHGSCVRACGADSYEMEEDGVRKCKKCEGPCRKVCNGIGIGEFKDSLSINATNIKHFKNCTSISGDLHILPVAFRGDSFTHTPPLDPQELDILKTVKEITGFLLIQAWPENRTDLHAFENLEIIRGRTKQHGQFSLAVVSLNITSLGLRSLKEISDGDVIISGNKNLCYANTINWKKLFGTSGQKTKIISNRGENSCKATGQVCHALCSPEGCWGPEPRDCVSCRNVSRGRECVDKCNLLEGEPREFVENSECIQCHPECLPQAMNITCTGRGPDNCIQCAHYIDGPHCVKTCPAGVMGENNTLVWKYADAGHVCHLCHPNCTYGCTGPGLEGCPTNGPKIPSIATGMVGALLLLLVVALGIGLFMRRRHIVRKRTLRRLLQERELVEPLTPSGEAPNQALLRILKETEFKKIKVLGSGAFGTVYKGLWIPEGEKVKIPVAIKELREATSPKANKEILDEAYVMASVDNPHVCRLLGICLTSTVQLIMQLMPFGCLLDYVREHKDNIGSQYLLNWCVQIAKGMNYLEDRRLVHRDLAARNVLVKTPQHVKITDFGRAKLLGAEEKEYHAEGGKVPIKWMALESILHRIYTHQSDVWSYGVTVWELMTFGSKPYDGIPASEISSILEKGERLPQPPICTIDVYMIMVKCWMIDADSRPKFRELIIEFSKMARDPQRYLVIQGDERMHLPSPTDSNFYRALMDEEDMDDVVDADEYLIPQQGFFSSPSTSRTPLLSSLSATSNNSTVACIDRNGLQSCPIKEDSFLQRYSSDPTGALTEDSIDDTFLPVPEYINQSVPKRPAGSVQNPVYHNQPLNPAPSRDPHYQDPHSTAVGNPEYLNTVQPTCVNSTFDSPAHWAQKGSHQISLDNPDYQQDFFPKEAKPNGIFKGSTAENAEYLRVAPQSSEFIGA
# Method in brief: as §2
# [4] = system: BaF3 cells expressing wildtype EGFR; test: Antiproliferative activity (MTT) against control BaF3 cells expressing wildtype EGFR; type: cell-based; conditions: Mus musculus, BAF3 parental cells
# Method in brief: as §2
# Chain of human EGFR (native sequence) (P00533 25-1210): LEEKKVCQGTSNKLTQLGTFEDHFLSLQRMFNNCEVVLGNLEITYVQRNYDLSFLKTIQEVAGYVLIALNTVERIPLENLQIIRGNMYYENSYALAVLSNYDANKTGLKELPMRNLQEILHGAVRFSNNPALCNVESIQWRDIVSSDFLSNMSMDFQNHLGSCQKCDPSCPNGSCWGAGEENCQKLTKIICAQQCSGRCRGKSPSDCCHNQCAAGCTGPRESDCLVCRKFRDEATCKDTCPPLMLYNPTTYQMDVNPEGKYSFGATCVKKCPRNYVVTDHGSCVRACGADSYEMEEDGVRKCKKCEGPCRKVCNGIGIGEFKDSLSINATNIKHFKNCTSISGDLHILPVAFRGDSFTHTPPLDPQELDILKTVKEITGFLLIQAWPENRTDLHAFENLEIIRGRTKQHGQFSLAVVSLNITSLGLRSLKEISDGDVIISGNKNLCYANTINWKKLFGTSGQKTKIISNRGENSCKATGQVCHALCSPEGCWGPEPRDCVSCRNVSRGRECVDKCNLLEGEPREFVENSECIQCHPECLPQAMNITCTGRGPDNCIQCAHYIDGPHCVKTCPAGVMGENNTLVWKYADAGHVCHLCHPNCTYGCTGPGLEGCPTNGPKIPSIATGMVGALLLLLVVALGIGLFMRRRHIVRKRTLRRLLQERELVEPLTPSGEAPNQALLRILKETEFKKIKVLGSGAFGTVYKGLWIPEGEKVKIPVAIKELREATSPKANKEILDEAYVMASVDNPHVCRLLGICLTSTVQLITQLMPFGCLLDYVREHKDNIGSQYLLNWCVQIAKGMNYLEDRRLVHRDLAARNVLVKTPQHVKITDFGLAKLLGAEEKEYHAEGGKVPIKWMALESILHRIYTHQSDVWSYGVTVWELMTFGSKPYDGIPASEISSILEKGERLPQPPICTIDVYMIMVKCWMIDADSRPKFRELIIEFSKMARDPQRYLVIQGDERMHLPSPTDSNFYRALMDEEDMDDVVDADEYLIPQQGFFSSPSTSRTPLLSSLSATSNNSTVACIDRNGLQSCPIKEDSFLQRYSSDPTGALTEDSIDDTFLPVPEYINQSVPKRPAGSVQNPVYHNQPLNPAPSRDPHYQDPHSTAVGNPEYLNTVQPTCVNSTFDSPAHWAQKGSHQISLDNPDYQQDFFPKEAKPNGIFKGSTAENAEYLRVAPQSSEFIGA
Compound,IC50 [1],IC50 (EGFR L858R),IC50 (EGFR L858R/T790M),GI50 [2],GI50 [3],IC50 [4]
"C=CC(=O)Nc1ccc(OCCN(C)C)c(Nc2ncc(Cl)c(Nc3ccccc3P(C)(C)=O)n2)c1 [Example 117, N-(3-((5-chloro-4-((2-(dimethylphosphoryl)phenyl)amino)pyrimidin-2-yl)amino)-4-(2-(dimethylamino)ethoxy)phenyl)acrylamide]",≥ 0.25 µM,≥ 0.25 µM,≥ 0.25 µM,≥ 0.25 µM,≥ 0.25 µM,≥ 0.25 µM
"COc1cc(N2CCOCC2)c(NC(=O)C#CCCN2CCN(C)CC2)cc1Nc1ncc(Cl)c(Nc2ccccc2P(C)(C)=O)n1 [Example 118, N-(5-((5-chloro-4-((2-(dimethylphosphoryl)phenyl)amino)pyrimidin-2-yl)amino)-4-methoxy-2-morpholinophenyl)-5-(4-methylpiperazin-1-yl)pent-2-ynamide]",< 0.05 µM,< 0.05 µM,< 0.05 µM,< 0.05 µM,< 0.05 µM,≥ 0.25 µM
"COc1cc(N2CCCC2)c(NC(=O)C#CCCN2CCN(C)CC2)cc1Nc1ncc(Cl)c(Nc2ccccc2P(C)(C)=O)n1 [Example 119, N-(5-((5-chloro-4-((2-(dimethylphosphoryl)phenyl)amino)pyrimidin-2-yl)amino)-4-methoxy-2-(pyrrolidin-1-yl)phenyl)-5-(4-methylpiperazin-1-yl)pent-2-ynamide]",< 0.05 µM,< 0.05 µM,< 0.05 µM,0.101 to 0.25 µM,0.101 to 0.25 µM,≥ 0.25 µM
"C=CC(=O)Nc1cc(Nc2ncc(C3CC3)c(Nc3ccccc3P(C)(C)=O)n2)c(OC)cc1N(C)CCN(CC)CC [Example 120, N-(5-((5-cyclopropyl-4-((2-(dimethylphosphoryl)phenyl)amino)pyrimidin-2-yl)amino)-2-((2-(diethylamino)ethyl)(methyl)amino)-4-methoxyphenyl)acrylamide]",< 0.05 µM,< 0.05 µM,< 0.05 µM,< 0.05 µM,< 0.05 µM,≥ 0.25 µM
"C=CC(=O)Nc1cc(Nc2ncc(Cl)c(Nc3ccccc3P(C)(C)=O)n2)c(OC)cc1OC(CF)CN(CC)CC (stereo not drawn) [Example 121, N-(5-((5-chloro-4-((2-(dimethylphosphoryl)phenyl)amino)pyrimidin-2-yl)amino)-2-((1-(diethylamino)-3-fluoropropan-2-yl)oxy)-4-methoxyphenyl)acrylamide]",< 0.05 µM,< 0.05 µM,< 0.05 µM,< 0.05 µM,< 0.05 µM,≥ 0.25 µM
"COCC1CCCN1CCC#CC(=O)Nc1cc(Nc2ncc(Cl)c(Nc3ccccc3P(C)(C)=O)n2)c(OC)cc1N1CCOCC1 (stereo not drawn) [Example 122, N-(5-((5-chloro-4-((2-(dimethylphosphoryl)phenyl)amino)pyrimidin-2-yl)amino)-4-methoxy-2-morpholinophenyl)-5-(2-(methoxymethyl)pyrrolidin-1-yl)pent-2-ynamide]",< 0.05 µM,< 0.05 µM,< 0.05 µM,< 0.05 µM,< 0.05 µM,≥ 0.25 µM
"C=CC(=O)Nc1cc(Nc2ncc(Cl)c(Nc3ccccc3P(C)(C)=O)n2)c(OC)cc1OC1CCCN(CCOC)C1 (stereo not drawn) [Example 123, N-(5-((5-chloro-4-((2-(dimethylphosphoryl)phenyl)amino)pyrimidin-2-yl)amino)-4-methoxy-2-((1-(2-methoxyethyl)piperidin-3-yl)oxy)phenyl)acrylamide]",< 0.05 µM,< 0.05 µM,< 0.05 µM,< 0.05 µM,< 0.05 µM,≥ 0.25 µM
"C=CC(=O)Nc1cc(Nc2ncc(Cl)c(Nc3ccccc3P(C)(C)=O)n2)c(OC)cc1C#CCN(C)C [Example 124, N-(5-((5-chloro-4-((2-(dimethylphosphoryl)phenyl)amino)pyrimidin-2-yl)amino)-2-(3-(dimethylamino)prop-1-yn-1-yl)-4-methoxyphenyl)acrylamide]",< 0.05 µM,< 0.05 µM,< 0.05 µM,< 0.05 µM,< 0.05 µM,≥ 0.25 µM
"C=CC(=O)Nc1ccc(OC)c(Nc2ncc(Cl)c(Nc3ccc(OCCN(C)C)cc3P(C)(C)=O)n2)c1 [Example 125, N-(3-((5-chloro-4-((4-(2-(dimethylamino)ethoxy)-2-(dimethylphosphoryl)phenyl)amino)pyrimidin-2-yl)amino)-4-methoxyphenyl)acrylamide]",< 0.05 µM,< 0.05 µM,< 0.05 µM,< 0.05 µM,< 0.05 µM,≥ 0.25 µM
"C=CC(=O)Nc1ccc(OC)c(Nc2ncc(Cl)c(Nc3ccc(OCCCN(C)C)cc3P(C)(C)=O)n2)c1 [Example 126, N-(3-((5-chloro-4-((4-(3-(dimethylamino)propoxy)-2-(dimethylphosphoryl)phenyl)amino)pyrimidin-2-yl)amino)-4-methoxyphenyl)acrylamide]",< 0.05 µM,< 0.05 µM,< 0.05 µM,< 0.05 µM,< 0.05 µM,≥ 0.25 µM
"C=CC(=O)Nc1cc(Nc2ncc(Cl)c(Nc3ccccc3P(C)(C)=O)n2)c(OC)cc1C#CCCN(C)C [Example 128, N-(5-((5-chloro-4-((2-(dimethylphosphoryl)phenyl)amino)pyrimidin-2-yl)amino)-2-(4-(dimethylamino)but-1-yn-1-yl)-4-methoxyphenyl)acrylamide]",< 0.05 µM,< 0.05 µM,< 0.05 µM,< 0.05 µM,< 0.05 µM,≥ 0.25 µM
"C=CC(=O)Nc1cc(Nc2ncc(Cl)c(Nc3ccccc3P(C)(C)=O)n2)c(OC)cc1O[C@@H](COC)CN(C)C [Example 129, (R)-N-(5-((5-chloro-4-((2-(dimethylphosphoryl)phenyl)amino)pyrimidin-2-yl)amino)-2-((1-(dimethylamino)-3-methoxypropan-2-yl)oxy)-4-methoxyphenyl)acrylamide]",< 0.05 µM,< 0.05 µM,< 0.05 µM,< 0.05 µM,< 0.05 µM,≥ 0.25 µM
"C=CC(=O)Nc1cc(Nc2ncc(Cl)c(Nc3ccccc3P(C)(C)=O)n2)c(OC)cc1OC(COC)CN(C)C (stereo not drawn) [Example 130, N-(5-((5-chloro-4-((2-(dimethylphosphoryl)phenyl)amino)pyrimidin-2-yl)amino)-2-((1-(dimethylamino)-3-methoxypropan-2-yl)oxy)-4-methoxyphenyl)acrylamide]",< 0.05 µM,< 0.05 µM,< 0.05 µM,< 0.05 µM,< 0.05 µM,≥ 0.25 µM
"C=CC(=O)Nc1ccc(OC)c(Nc2ncc(OC)c(Nc3ccccc3P(C)(C)=O)n2)c1 [Example 131, N-(3-((4-((2-(dimethylphosphoryl)phenyl)amino)-5-methoxypyrimidin-2-yl)amino)-4-methoxyphenyl)acrylamide]",0.05 to 0.1 µM,< 0.05 µM,< 0.05 µM,< 0.05 µM,0.05 to 0.1 µM,≥ 0.25 µM
"C=C(Cl)C(=O)Nc1ccc(OC)c(Nc2ncc(Cl)c(Nc3ccccc3P(C)(C)=O)n2)c1 [Example 132, 2-chloro-N-(3-((5-chloro-4-((2-(dimethylphosphoryl)phenyl)amino)pyrimidin-2-yl)amino)-4-methoxyphenyl)acrylamide]",< 0.05 µM,< 0.05 µM,< 0.05 µM,< 0.05 µM,0.101 to 0.25 µM,≥ 0.25 µM
"C=CC(=O)Nc1cc(Nc2ncc(Cl)c(Nc3ccccc3P(C)(C)=O)n2)c(OC)cc1C [Example 133, N-(5-((5-chloro-4-((2-(dimethylphosphoryl)phenyl)amino)pyrimidin-2-yl)amino)-4-methoxy-2-methylphenyl)acrylamide]",< 0.05 µM,< 0.05 µM,< 0.05 µM,< 0.05 µM,< 0.05 µM,≥ 0.25 µM
"C=CC(=O)Nc1ccc(OC(F)(F)F)c(Nc2ncc(Cl)c(Nc3ccccc3P(C)(C)=O)n2)c1 [Example 134, N-(3-((5-chloro-4-((2-(dimethylphosphoryl)phenyl)amino)pyrimidin-2-yl)amino)-4-(trifluoromethoxy)phenyl)acrylamide]",< 0.05 µM,< 0.05 µM,< 0.05 µM,< 0.05 µM,< 0.05 µM,≥ 0.25 µM
"C=CC(=O)Nc1ccc(CC)c(Nc2ncc(Cl)c(Nc3ccccc3P(C)(C)=O)n2)c1 [Example 135, N-(3-((5-chloro-4-((2-(dimethylphosphoryl)phenyl)amino)pyrimidin-2-yl)amino)-4-ethylphenyl)acrylamide]",< 0.05 µM,< 0.05 µM,< 0.05 µM,< 0.05 µM,< 0.05 µM,≥ 0.25 µM
